Results taken from US20240254547A1, “HIGHLY ACCURATE […]” (KAO CORPORATION, priority 2018, published 2024).

How the values were obtained:
[1] = system: TA100 strain of Salmonella typhimurium (S. typhimurium) LT-2; experiment: Ames test (pre-incubation method), number of revertant colonies; format: cell-based; conditions: for Number of revertant colonies in Ames test, Mean: mean of three plates
Description: Exposure of cells to ENU was performed in accordance with the pre-incubation method of the Ames test (K. Mortelmans et al. Mutat. Res.—Fundam. Mol. Mech. Mutagen. 455:29-60, 2000). TA100 strain was seeded in 2 mL of Nutrient Broth No. 2 (produced by Oxoid Limited), and subjected to shaking culture at 37° C. and 180 rpm for 4 hours to afford pre-culture solution with an O.D.660 value of 1.0 or higher. ENU (produced by Sigma-Aldrich Co. LLC.) was diluted with dimethylsulfoxide (DMSO; produced by Wako Pure Chemical Industries, Ltd.). Into test tubes, 100 μL of the ENU solution, 500 μL of 0.1 M phosphate buffer, and 100 μL of the pre-culture solution were added (amount of ENU: 62.5, 125, 250, 500, and 1,000 μg/tube), and the resultants were subjected to shaking culture at 100 rpm in a water bath at 37° C. for 20 minutes (ENU group). For a control group, 100 μL of solvent (DMSO) was added instead of the ENU solution. After shaking culture for 20 minutes, the test tubes each containing a culture solution were taken out of the water bath, and 50 μL of each culture solution was added to 2 mL of Nutrient Broth solution aliquoted in advance, and the resultant was further cultured in an incubator at 37° C. and 180 rpm for 14 hours, from which the bacterial suspensions were then collected and centrifuged at 7,500 rpm for 5 minutes, and the supernatants were removed to collect the bacterial cells.
For the Ames test, a bacterial suspension exposed to ENU by using the pre-incubation method was produced under the above-described conditions, and 2 mL of top agar (containing 1% NaCl, 1% agar, 0.05 mM histidine, and 0.05 mM biotine) warmed to 45° C. was added thereto and the resultant was suspended by using a Vortex, and poured onto a minimal glucose agar medium (Tesmedia® AN; produced by Oriental Yeast Co., Ltd.) to form a layer. The resulting plate was subjected to culturing at 37° C. for 48 hours, and the number of colonies observed was counted.

[2] = system: genomic DNA from the bone marrow of TG mouse; experiment: Mutation analysis of mouse bone marrow genomic DNA by sequencing with information on complementary strands; format: in vivo, mouse (C57BL/6JJmsSlc-Tg (gpt delta)); conditions: ENU 150 mg/kg/day intraperitoneally for 5 days, n=2
Description: Male TG mice which were 7 to 9 weeks old at initiation of administration were used. ENU (produced by Toronto Research Chemicals, Inc.) was dissolved in saline to a concentration of 15.0 mg/mL. By using a plastic syringe and a 25 G injection needle, […] was intraperitoneally administered to the mice once per day (ENU 150 mg/kg/day) for 5 days (ENU group). Saline was administered to a control group. Seven days after the final administration, the animals were each euthanized to resect the femur, and genomic DNA was extracted from the bone marrow by using a REcoverEase DNA Isolation Kit (produced by Agilent Technologies) in accordance with the recommended protocol. The double-stranded DNA concentration of the resulting DNA was measured by using a Qubit3.0 Fluorometer (produced by Thermo Fisher Scientific) with a Qubit™ dsDNA BR Assay Kit attached thereto. […]
Each of the libraries prepared in 3) was subjected to sequencing by using a HiSeq 2500 (produced by Illumina, Inc.), where the read length was set to 2*100 bp. […]
Edit of raw read sequences acquired through sequencing, extraction of information on complementary strands, and mutation analysis were performed by using the procedure of 5) in Example 2 in accordance with the analysis flow illustrated above in Schematic Diagrams 3 and 4. […]

Structure (SMILES): CCN(N=O)C(N)=O [ENU, ethylnitrosourea]
- Number of revertant colonies after exposure to ENU versus DMSO control ([1]; 62.5 to 1,000 μg/plate): increase
- Number of revertant colonies in Ames test, Mean ([1]; ENU 62.5 μg/plate): 207.3
- Number of revertant colonies in Ames test ([1]; ENU 62.5 μg/plate, plate 1): 220
- Number of revertant colonies in Ames test ([1]; ENU 62.5 μg/plate, plate 2): 192
- Number of revertant colonies in Ames test ([1]; ENU 62.5 μg/plate, plate 3): 210
- Number of revertant colonies in Ames test, Mean ([1]; ENU 125 μg/plate): 381.3
- Number of revertant colonies in Ames test ([1]; ENU 125 μg/plate, plate 1): 430
- Number of revertant colonies in Ames test ([1]; ENU 125 μg/plate, plate 2): 391
- Number of revertant colonies in Ames test ([1]; ENU 125 μg/plate, plate 3): 323
- Number of revertant colonies in Ames test, Mean ([1]; ENU 250 μg/plate): 1389.0
- Number of revertant colonies in Ames test ([1]; ENU 250 μg/plate, plate 1): 1482
- Number of revertant colonies in Ames test ([1]; ENU 250 μg/plate, plate 2): 1359
- Number of revertant colonies in Ames test ([1]; ENU 250 μg/plate, plate 3): 1326
- Number of revertant colonies in Ames test, Mean ([1]; ENU 500 μg/plate): 3960.7
- Number of revertant colonies in Ames test ([1]; ENU 500 μg/plate, plate 1): 4095
- Number of revertant colonies in Ames test ([1]; ENU 500 μg/plate, plate 2): 4006
- Number of revertant colonies in Ames test ([1]; ENU 500 μg/plate, plate 3): 3751
- Number of revertant colonies in Ames test, Mean ([1]; ENU 1000 μg/plate): 2534.0
- Number of revertant colonies in Ames test ([1]; ENU 1000 μg/plate, plate 1): 1659
- Number of revertant colonies in Ames test ([1]; ENU 1000 μg/plate, plate 2): 3206
- Number of revertant colonies in Ames test ([1]; ENU 1000 μg/plate, plate 3): 2737
- Frequencies of A:T>T:A, A:T>G:C, and G:C>A:T versus control group [2]: significantly higher
